According to paper PMC8159387 (Chemical Science, 2020):
Square brackets hold non-standard residues; d marks the D form. Peptide text beside a SMILES is read from it. * marks the point of attachment. CH2CH2OBz(4-tBu) = CC(C)(C)c1ccc(C(=O)OCC*)cc1; dDab = NCC[C@@H](N)C(=O)O; Dab = NCC[C@H](N)C(=O)O; Mpa = O=C(O)CCS

Tested on: E. coli, P. aeruginosa, A. calcoaceticus and S. aureus
Test: MIC and MBC summarised across the test species
Type: cell-based
Details: species not given

Structure (SMILES) | lowest MIC values of the CLipPA analogues [μM]
CC(C)C[C@H](NC(=O)[C@H](CCN)NC(=O)[C@H](CCN)NC(=O)[C@@H](Cc1ccccc1)NC(=O)[C@H](CC(C)C)NC(=O)[C@H](CCN)NC(=O)[C@H](CCN)NC(=O)[C@@H](CCN)NC(=O)[C@@H](N)CSCCOC(=O)c1ccc(C(C)(C)C)cc1)C(N)=O [Peptide 12f] (H-C(CH2CH2OBz(4-tBu))[dDab][Dab][Dab]L[dF][Dab][Dab]L-NH2) | 8
CC(C)C[C@H](NC(=O)[C@H](CCN)NC(=O)[C@H](CCN)NC(=O)[C@@H](Cc1ccccc1)NC(=O)[C@H](CC(C)C)NC(=O)[C@H](CCN)NC(=O)[C@H](CCN)NC(=O)[C@@H](CCN)NC(=O)CCSCCOC(=O)c1ccc(C(C)(C)C)cc1)C(N)=O [Peptide 13f] ([Mpa](CH2CH2OBz(4-tBu))[dDab][Dab][Dab]L[dF][Dab][Dab]L-NH2) | 8
